In US5264589A, “Merocyanine protein error indicators” (Miles Inc., priority 1991, dated 1993):

Columns and labels:
[1] = pKa of the indicator compound; format: physicochemical
[2] = target: human serum albumin (Homo sapiens, UniProt P02768); experiment: Liquid assay for human serum albumin (increase in absorbance); details: albumin 100 mg/dl, 200-250 mM Na+ or K+ citrate buffer
Experimental: The utility of the merocyanine protein error indicator compounds of the present invention in a liquid assay for the determination of protein levels in a liquid test sample is illustrated in Table 7 below. […] The solution was then treated with sufficient human serum albumin to make the albumin concentration 100 mg/dl and the absorbance was measured again. The reported increase in absorbance (Δ abs) is proportional to the amount of albumin present, and is indicative of the relative sensitivity of the dye for measuring protein.

[3] = target: T1, human serum albumin (HSA) (Homo sapiens, UniProt P02768); experiment: Dose response of reagent strips including SPDIB (K/S reflectance, Clinitek 200); details: analytical test strips including 0.3 mM SPDIB; 50 mM potassium citrate, pH 2.5; K/S at 25 seconds; FIG. 7
T1 construct: purchased Miles, Inc., Elkhart, Ind; (Pentex)
Experimental: A buffered liquid sample (50 mM potassium citrate, pH 2.5) which was shown by immunoassay to be devoid of albumin, was spiked to various clinically significant levels with Pentex® human serum albumin (HSA) (Miles, Inc., Elkhart, Ind.). Using a Clinitek 200® Instrument (Miles, Inc., Elkhart, Ind.) protein measurements were made using analytical test strips including 0.3 mM SPDIB.
Resolution was quantitatively expressed in delta K/S between albumin levels, as shown FIG. 7. K/S are calculated from the formula: [formula] wherein R is the fraction of reflectance from the test device, K is a constant, and S is the light scattering coefficient of the particular reflecting medium. The above equation is a simplified form of the well-known Kubelka-Munk equation (See Gustav Kortum, "Reflectance Spectroscopy," pp. 106-11, Springer Verlas, New York (1969). K/S was determined at 25 seconds.

Chain of human serum albumin (P02768 25-609): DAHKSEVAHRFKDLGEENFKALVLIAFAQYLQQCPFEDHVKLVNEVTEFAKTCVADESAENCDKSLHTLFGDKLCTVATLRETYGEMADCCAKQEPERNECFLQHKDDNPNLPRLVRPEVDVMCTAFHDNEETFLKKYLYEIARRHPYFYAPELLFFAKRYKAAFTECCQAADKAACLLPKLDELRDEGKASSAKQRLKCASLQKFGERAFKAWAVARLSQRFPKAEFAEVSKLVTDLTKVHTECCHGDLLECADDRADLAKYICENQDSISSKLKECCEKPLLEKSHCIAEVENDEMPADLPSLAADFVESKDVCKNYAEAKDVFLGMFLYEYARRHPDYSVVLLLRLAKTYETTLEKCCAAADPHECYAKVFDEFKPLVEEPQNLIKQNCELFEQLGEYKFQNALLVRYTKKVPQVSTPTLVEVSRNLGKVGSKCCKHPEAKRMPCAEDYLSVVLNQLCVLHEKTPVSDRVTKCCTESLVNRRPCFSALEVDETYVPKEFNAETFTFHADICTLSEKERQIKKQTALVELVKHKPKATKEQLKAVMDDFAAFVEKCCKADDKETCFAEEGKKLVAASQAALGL
T1 sequence (P02768 25-609): as above

## CC1(C)C(C=Cc2cc(Br)c(O)c(Br)c2)=[N+](CCCS(=O)(=O)[O-])c2ccccc21 [Compound A, 1-(ω-sulfopropyl)-2-(4'hydroxy-3',5'-dibromostyryl)-3,3-dimethylindoleninium betaine]
[1]
  COMPD. pKa: 3.59
[2]; compound conc. 1.0 × 10^-5 M, assay pH 3.0, λ 522 nm
  ΔABS (increase in absorbance): 0.156

## O=S(=O)([O-])CCCC[n+]1c(C=Cc2cc(I)c(O)c(I)c2)sc2ccccc21 [Compound B, 1-(ω-sulfobutyl)-2-(4'-hydroxy-3',5'-diiodostyryl)-benzothiazolium betaine]
[1]
  COMPD. pKa: 4.35
[2]; compound conc. 2.5 × 10^-5 M, assay pH 3.5, λ 506 nm
  ΔABS (increase in absorbance): 0.027

## CC1(C)C(C=Cc2cc(I)c(O)c(I)c2)=[N+](CCS(=O)(=O)[O-])c2ccccc21 [Compound C, 1-(ω-sulfoethyl)-2-(4'-hydroxy-3',5'-diiodostyryl)-3,3-dimethylindoleninium betaine]
[1]
  COMPD. pKa: 3.65
[2]; compound conc. 1.5 × 10^-5 M, assay pH 3.0, λ 543 nm
  ΔABS (increase in absorbance): 0.255

## CC1(C)C(C=Cc2cc(I)c(O)c(I)c2)=[N+](CCCS(=O)(=O)[O-])c2ccccc21 [Compound D, 1-(ω-sulfopropyl)-2-(4'-hydroxy-3'-5'-diiodostyryl)-3,3-dimethylindoleninium betaine]
[1]
  COMPD. pKa: 3.65
[2]; compound conc. 2.0 × 10^-5 M, assay pH 3.0, λ 541 nm
  ΔABS (increase in absorbance): 0.402
[3]
  resolution between protein levels (delta K/S): significant resolution between protein levels
  response of the strip to different levels of protein: sensitive to a wide range of protein concentrations

## CC1(C)C(C=Cc2cc(I)c(O)c(I)c2)=[N+](CCCCS(=O)(=O)[O-])c2ccccc21 [Compound E, 1-(ω-sulfobutyl)-2-(4'-hydroxy-3',5'-diiodostyryl)-3,3-dimethylindoleninium betaine]
[1]
  COMPD. pKa: 3.52
[2]; compound conc. 1.8 × 10^-5 M, assay pH 3.0, λ 535 nm
  ΔABS (increase in absorbance): 0.322
